Like-named read-outs stand apart in the source and are kept apart here.
How the values were obtained:
[1] = tested on: human K-562 leukemia cells; experiment: Antiproliferative assay on K-562 cells (CellTiter-Blue viability readout); assay type: cell-based; conditions: for IC50: Homo sapiens; for increase of antiproliferative activity compared to aureothin: ratio of IC50 versus aureothin
Protocol: Cells were grown in the appropiate cell culture medium supplemented with 10 mL L^-1 ultraglutamine 1 (Cambrex 17-605E/U1), 500 µL L^-1 gentamicin sulfate (CAMBREX 17-518Z), and 10% heat inactivated fetal bovine serum (PAA A15-144) at 37°C in high density polyethylene flasks (NUNC 156340).
The test substances are dissolved in DMSO before being diluted in DMEM. […] were harvested at the logarithmic growth phase after soft trypsinization, using 0.25% trypsin in PBS containing 0.02% EDTA (Biochrom KG L2163). For each experiment approximately 10,000 cells were seeded with 0.1 mL culture medium per well of the 96-well microplates (NUNC 167008).
The cells were incubated with dilutions of the test substances for 72 hours at 37°C in a humidified atmosphere and 5% CO2.
For estimating the influence of chemical compounds on cell proliferation of K-562 we determinate the numbers of viable cells present in multiwell plates via CellTiter-Blue® assay. It uses the indicator dye resazurin to measure the metabolic capacity of cells as indicator of cell viability. Viable cells of untreated control retain the ability to reduce resazurin into resorufin, which is highly fluorescent. […] Under our experimental conditions, the signal from the CellTiter-Blue® reagent is proportional to the number of viable cells.
The GI50 and CC50 values were defined as being where the concentration-response curve intersected the 50% line, compared to untreated control. These comparisons of the different values were performed with software Magellan (TECAN).
A repeat determination has been conducted in all cases.

[2] = tested on: fungal strains like Candida albicans, Sporobolomyces salmonicolor, Penicillium notatum, Glomerella or several Aspergillus spp.; experiment: Antimicrobial / antifungal activity testing; assay type: cell-based; conditions: qualitative; compared with the other antimicrobial activities or with aureothin
[3] = K562, DOA derivatives, K-562 cells, 72 h incubation (assay inferred; table has no title), read-out: IC50

Row | Structure (SMILES) | IC50 ([1]; K562, 72 h) | IC50 [1, 3] | IC50 ([1]; K562, read-out: IC50 antiproliferative activity against K-562 cells) | increase of antiproliferative activity compared to aureothin ([1]; K-562 cells) | effect against fungal strains [2]
1 | COc1oc(CC/C(C)=C/C(C)=C/c2ccc(Cl)cc2)c(C)c(=O)c1C [R = Ar-Cl, p-chloro-DOA] | 2000 nM | 0.8 µg/mL |  |  | 
2 | COc1oc(CC/C(C)=C/C(C)=C/c2ccc(F)cc2)c(C)c(=O)c1C [R = Ar-F, p-fluoro-DOA] | 1000 nM | 0.5 µg/mL |  |  | 
3 | COc1oc(CC/C(C)=C/C(C)=C/c2ccc(Br)cc2)c(C)c(=O)c1C [R = Ar-Br, p-bromo-DOA] | 1000 nM | 0.5 µg/mL |  |  | 
4 | COc1oc(CC/C(C)=C/C(C)=C/c2ccc(I)cc2)c(C)c(=O)c1C [R = Ar-I, p-iodo-DOA] | 1000 nM | 0.5 µg/mL |  |  | 
5 | COc1oc(CC/C(C)=C/C(C)=C/c2ccc([N+](=O)[O-])cc2)c(C)c(=O)c1C [Deoxyaureothin, deoxyaureothin, reference compound] |  |  | 5000 nM | 5 fold | 
6 | COc1oc(CC/C(C)=C/C(C)=C/c2ccc3ccccc3c2)c(C)c(=O)c1C [R = Ar-Ph, 2-naphthoate-DOA] | 21000 nM | 8 µg/mL |  |  | 
7 | COc1oc(CC/C(C)=C/C(C)=C/c2ccc(C#N)cc2)c(C)c(=O)c1C [R = Ar-CN, deoxyaureonitrile] | 1000 nM | 0.5 µg/mL |  | up to 25 fold | activities comparable to aureothin
